The source of these data is patent publication US5068354A, “Epoxysuccinic acid derivatives” (Taisho Pharmaceutical Co., Ltd., priority 1989, dated 1991).

Common to all, as to assay type: biochemical
In assay [1] the target is T1, CANP (μCANP, Calpain I) (Homo sapiens, UniProt P07384).
T1 construct: purchased Nacalai Tesque Inc
T1 sequence (P07384 1-714): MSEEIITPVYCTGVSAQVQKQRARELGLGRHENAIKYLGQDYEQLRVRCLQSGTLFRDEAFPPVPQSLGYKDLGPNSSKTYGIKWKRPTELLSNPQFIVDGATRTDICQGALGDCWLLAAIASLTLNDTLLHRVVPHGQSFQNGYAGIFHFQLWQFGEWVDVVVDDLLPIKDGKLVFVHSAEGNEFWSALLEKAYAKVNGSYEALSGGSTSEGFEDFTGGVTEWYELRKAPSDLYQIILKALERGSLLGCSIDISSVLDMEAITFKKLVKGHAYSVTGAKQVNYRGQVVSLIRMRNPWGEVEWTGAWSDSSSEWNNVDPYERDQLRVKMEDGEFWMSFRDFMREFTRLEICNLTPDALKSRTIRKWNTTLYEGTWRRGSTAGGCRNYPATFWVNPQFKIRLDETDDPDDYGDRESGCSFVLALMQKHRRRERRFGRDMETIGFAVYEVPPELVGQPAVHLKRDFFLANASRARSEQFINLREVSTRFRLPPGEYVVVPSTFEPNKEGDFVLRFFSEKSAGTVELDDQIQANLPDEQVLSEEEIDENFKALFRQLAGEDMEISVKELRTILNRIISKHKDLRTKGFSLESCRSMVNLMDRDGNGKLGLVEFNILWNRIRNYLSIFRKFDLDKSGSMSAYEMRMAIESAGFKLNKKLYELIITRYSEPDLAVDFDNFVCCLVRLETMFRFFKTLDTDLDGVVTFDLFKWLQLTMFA
T1 sequence (P04632 1-268 partner): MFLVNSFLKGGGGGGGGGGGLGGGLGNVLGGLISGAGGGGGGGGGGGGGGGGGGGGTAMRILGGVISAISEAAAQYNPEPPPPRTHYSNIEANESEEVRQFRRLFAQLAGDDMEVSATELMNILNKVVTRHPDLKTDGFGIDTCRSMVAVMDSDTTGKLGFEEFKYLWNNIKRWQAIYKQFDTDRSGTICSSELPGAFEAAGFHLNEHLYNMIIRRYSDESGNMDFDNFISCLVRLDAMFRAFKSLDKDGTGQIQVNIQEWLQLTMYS
Briefly: Inhibitory Activity against CANP. The following applies: alkali-denatured casein, pH 7.5, preincubated 30° C. 5 min, incubation 20 min, read-out: concentration of the test drug required for 50% inhibition (IC50). On the procedure:
Test example 1 [Inhibitory Activity against CANP]
The activity was measured according to the method of S. Ishiura et al [J. Biochem., vol. 84, page 225 (1978)].
Each of 0.45 ml of the reaction solutions containing 25 mM 2-mercaptoethanol, 5 mM calcium chloride, 0.1 M sodium glycerophosphate-HCl (pH 7.5), 0.24% alkali-denatured casein, 1% dimethyl sulfoxide and various concentrations of the test drug was preincubated at 30° C. for 5 minutes, and 5 μg of μCANP (50 μg) (Calpain I, Nacalai Tesque Inc.) was added or starting the reaction. After incubation at 30° C. for 20 minutes, the reaction was stopped by addition of 0.5 ml of 10% trichloroacetic acid. After allowing to stand at room temperature for 60 minutes, the mixture was centrifuged at 3000×g for 5 minutes, and the absorbance at 280 nm of the supernatant was determined. The remaining activity was obtained by reducing the blank value which was obtained in a similar manner to the above but adding 10% trichloroacetic acid prior to addition of μCANP from the above value. The concentration of the test drug required for 50% inhibition (IC50) was calculated from the inhibition rate obtained using the value which was measured in a similar manner to the above but without the test drug. The IC50 value of the compound obtained in Example 5 was more than 200,000 nM.

In assay [2] the target is T2, papain (Carica papaya, UniProt P00784).
T2 construct: purchased Sigma Chemical Co
T2 sequence (P00784 134-345): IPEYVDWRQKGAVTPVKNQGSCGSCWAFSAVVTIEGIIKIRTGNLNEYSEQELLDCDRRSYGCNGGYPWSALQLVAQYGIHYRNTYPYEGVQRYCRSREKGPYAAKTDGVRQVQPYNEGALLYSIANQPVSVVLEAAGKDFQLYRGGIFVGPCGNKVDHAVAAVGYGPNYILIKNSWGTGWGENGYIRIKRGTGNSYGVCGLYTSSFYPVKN
Briefly: Inhibitory Activity against Papain. The following applies: pH 6.8, preincubated 40° C. 3 min, incubation 10 min, read-out: concentration of the test drug required for 50% inhibition (IC50). On the procedure: Test example 2 [Inhibitory Activity against Papain]
The activity was measured according to the method of A.J. Barrett et al [Biochem. J., vol. 201, page 189, (1982)].
To each of 0.95 ml of the reaction solutions containing 2.5 mM 2-mercaptoethanol, 1 mM disodium ethylenediaminetetraacetate, 0.1 M sodium potassium phosphate (pH 6.8), 0.1% brij-35 (Nacalai Tesque Inc.), 1% dimethyl sulfoxide and the various concentrations of the test drug was added 25 μl of 400 nM papain solution (Sigma Chemical Co.), and the mixture was preincubated for 40° C. for 3 minutes, after which 25 μof 200 μM benzyloxycarbonyl-L-phenylaranyl-L-arginine 4-methyl-coumaryl-7-amide (Peptide Institute Inc.) was added for starting the reaction. After incubation at 40° C. for 10 minutes, the reaction was stopped by addition of 1 ml of 100 mM sodium chloroacetate in 100 mM sodium acetate (pH 4.3). The fluorescence of the liberated 7-amino-4-methylcoumarine was determined using a Shimazu fluorimeter RF-5000 with excitation at 380 nm and emission measured at 440 nm. The concentration of the test drug required for 50% inhibition (IC50) was calculated from the inhibiting rate calculated using the value which was measured in a similar manner to the above but without the test drug.

The test system of assay [3] is cathepsin B. Briefly: Inhibitory Activity against Cathepsin B. The following applies: pH 6.0, preincubated 40° C. 10 min, incubation 10 min. On the procedure:
The activity was measured according to the method of A.J. Barrett et al [Biochem. J., vol.
To each of 0.95 ml of the reaction solutions containing 2.5 mM 2-mercaptoethanol, 1 mM disodium ethylenediaminetetraacetate, 0.1 M sodium potassium phosphate buffer (pH 6.0), 0.1% brij-35 (Nacalai Tesque Inc.), 1% dimethyl sulfoxide and different concentrations of the test drug was added 25 μl of 200 nM cathepsin B solution (Sigma Chemical Co.), and the mixture was preincubated for 40° C. for 10 minutes, after which 25 μl of 200 µM benzyloxycarbonyl L-phenylaranyl-L-arginine 4-methylcoumaryl-7-amide (Peptide Institute Inc.) was added for starting the reaction. After incubation at 40° C. for 10 minutes, the reaction was stopped by addition of 1 ml of 100 mM sodium chloroacetate in 100 mM sodium acetate (pH 4.3) The fluorescence of the liberated 7-amino-4-methylcoumarine was determined using a Shimazu fluorimeter RP-5000 with excitation at 380 n and emission measured at 440 nm. […] Chosen as a comparative drug is N-(L-3-trans-carboxy-oxirane-2-carbonyl)-L-isoleucyl-L-proline methyl ester which is included within the structural formula of the above U.K. Patent and is the closest compound to the compound of formula I in the structure.

Consider `CCOC(=O)[C@H]1O[C@@H]1C(=O)N[C@H](C(=O)N1CCC[C@H]1C(=O)O)[C@@H](C)CC` [Example 5, N-(L-3-trans-ethoxycarbonyl-oxirane-2-carbonyl)-L-isoleucyl-L-proline], for which the IC50 is greater than 200 µM in assay [1], 16 µM in assay [2] and 120 nM in assay [3].
In the case of `CC[C@H](C)[C@H](NC(=O)[C@H]1O[C@@H]1C(=O)O)C(=O)N1CCC[C@H]1C(=O)OC` [Reference Example, N-(L-3-trans-carboxyoxirane-2-carbonyl)-L-isoleucyl-L-proline methyl ester, reference compound], in assay [3], the IC50 was determined as 8800 nM.
